According to ChEMBL document CHEMBL1155321, “Dopamine D3 receptor antagonists: the quest for a potentially selective PET ligand. Part 3: Radiosynthesis and in vivo studies” (Bioorg Med Chem Lett, 2009):

Columns and labels:
[1] = Intrinsic clearance in human liver microsomes; assay type: ADME, Microsome
[2] = Intrinsic clearance in rat liver microsomes; assay type: ADME, Microsome

CLint scaled [1]: 8.9 mL/min/kg
CLint scaled [2]: 36.9 mL/min/kg
SMILES: O=C1N(CCN2Cc3ccccc3C2)CCN1c1cccc(Cl)c1
